The results in this text go back to patent US20250207173A1, “REPORTER CELL FOR ASSESSING DDX3 HELICASE ACTIVITY” (Nanyang Technological University, priority 2023, published 2025).

“Also recorded” adds a separate entry of the source.

The subject of one series is DDX3. The series can be described thus: ICD-Helicase luciferase reporter assay (Rac1-FLuc / DvL2-FLuc reporter plasmids) in 293T cells. The following applies: for luciferase (luminescent) signals of Rac1-FLuc or DvL2-FLuc reporter cells: 293T cells transfected with Rac1-FLuc or DvL2-FLuc reporter plasmids, RK-33 0.5 to 2 μM vs vehicle (DMSO), cycloheximide as inhibitory control. The class given is cell-based, human. How it is done: A total of 1.2×10^5 sgCTL or sgDDX3X reporter cells (Rac1-FLuc or DvL2-FLuc) were seeded into wells of a 24-well plate to allow cells to adhere for 24 h. Cells were pre-treated with increasing concentrations of a non-specific DDX3 inhibitor, RK-33 (0.5 μM, 1 μM, or 2 μM) for 3 h before transiently expressing the reporter plasmids into sgCTL and sgDDX3X cells for 16 h. Half of the cells were lysed in 1× cell culture lysis buffer (Promega #E1500) and bioluminescence was measured on a white bottom 96-well plate using luciferase assay system (Promega #E4030) by performing 2 sec measurement delay followed by a 10 sec measurement read. The remaining half of the cells were processed on flow-cytometry to determine the percentage of AcGFP^+ cells, to account for variation in transfection efficiency. […] Cycloheximide was used as a positive control for translational inhibition. Data represent three independent experiments and values in the bars are mean±SEM. *, p<0.05; ****, p<0.0001; ns, non-significant.
Cell transfection: 293T cells were seeded in 12 well plate (1.5×10^5 cells per well) a day prior to transfection. Cells were transfected with 1 μg of plasmids using Lipofectamine 2000 (ThermoFisher Scientific #11668019) as per manufacturer's recommendations.
Luciferase assay: Cells were lysed in luciferase cell culture lysis buffer (Promega #E1500) before measuring bioluminescence in a clear bottom 96-well plate using luciferase assay system (Promega #E4030) as per manufacturer's instructions. Relative luciferase activity was determined by subtracting luminescence values to blank and normalizing to untreated samples. Cycloheximide (Sigma #01810) was used as a positive control for translation inhibition at 1 μg/mL and RK-33 (Selleck #S8246) was used as a positive control for chemical inhibition of DDX3 at 3 μM.
The helicase function of the DDX3X and DDX3Y proteins regulates mRNA translation by unwinding of the complex 5′ untranslated region (5′-UTR) secondary structure. Two unique 5′-UTR structures were designed, Rac1 5′-UTR and DvL2 5′-UTR (i.e. short DVL2), known to be regulated by DDX3X and DDX3Y. The 5′-UTR segments were placed upstream of the luciferase gene (from the firefly Photinus pyralis) driven by a constitutively active human cytomegalovirus promoter (FIG. 1A-E). Luciferase emits bioluminescence signals proportional to its levels of expression, which served as a readout for helicase unwinding activity in ICD-Helicase assays. The reporter plasmids (Rac1-Fluc or DvL2-Fluc) were then transiently transfected into 293T cells. A transfection efficiency of more than 80% was obtained in all the experiments (FIG. 2). The selection of this cell line was for three main reasons. […] Second, 293T cells can tolerate knock-out (KO) or nearly complete knock-down of DDX3X expression. […]
(In a reporter assay the amount or activity of a reporter protein is the signal.)

In series [1] the test system is 293T cells. The series can be described thus: Annexin V-FITC apoptosis/cell death assay. It counts as cell-based, human. The following applies: RK-33 treatment. As for the experimental part:
(§1) Staurosporine (STS) was used as a positive kill control. […] Cells were treated with STS as a kill control. Bar chart represents mean±SEM of 3 independent experiments.

Series [2] relates to 293T cells. As to the kind of experiment: MTS-based viability assay of reporter cells. The class given is cell-based. The following applies: 293T reporter cells (sgCTL and sgDDX3X); RK-33 0.5, 1 or 2 μM; normalized against vehicle (DMSO). How it is done:
as §1

As for `C[C@@H]1C[C@@H]([C@H](O)CC2CC(=O)NC(=O)C2)C(=O)[C@@H](C)C1` [cycloheximide], the “luciferase (luminescent) signals of Rac1-FLuc or DvL2-FLuc reporter cells” value in the series on DDX3 is “significantly inhibited”.
Turning to RK-33, the “induction of apoptosis/cell death” value with 293T cells [1] is “no major change in cell viability or induction of apoptosis/cell death”. For the same compound, the “luciferase (luminescent) signals of Rac1-FLuc or DvL2-FLuc reporter cells” value in the series on DDX3 is reported as “significantly inhibited; also recorded: dose-dependently inhibited”. Further, the luciferase activity result with DDX3 (sgCTL 293T cells with normal endogenous DDX3, RK-33 0.5, 1 or 2 μM, 3 h pre-treatment) was “dose-dependent reduction in luciferase activity”. In the series with DDX3 (sgDDX3X (DDX3X knock-out) 293T cells expressing Rac1-FLuc or DvL2-FLuc construct, RK-33 0.5, 1 or 2 μM), the “luciferase activity (response to inhibitor)” value is listed as “did not respond”. Moreover, the cell viability result in the series on 293T cells [2] is on record as “no major change in cell viability”.
